Laboratory results published in US8674109B2, “Pesticidal compositions” (Dow AgroSciences, LLC., priority 2009, dated 2014).

Columns and labels:
Format in all cases: in vivo
[1] = test system: beet armyworm (BAW; Spodoptera exigua: Lepidoptera); test: Insecticidal test for beet armyworm, 128-well diet tray assay
Summary of the method: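 Three to five second-instar larvae per well fed on artificial diet surface-treated with 50 μg/cm^2 compound (applied in 90:10 acetone-water, dried). Trays were held six days at 25 °C, 14:10 light-dark. Percent mortality was averaged across eight wells.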

[2] = test system: corn earworm (CEW; Helicoverpa zea: Lepidoptera); test: Insecticidal test for corn earworm, 128-well diet tray assay
Summary of the method: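 Second-instar larvae, three to five per well, placed on artificial diet treated with 50 μg/cm^2 compound applied in 90:10 acetone-water and dried. Held six days at 25° C., 14:10 light-dark. Percent mortality scored per well and averaged over eight wells.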

[3] = test system: green peach aphid (Myzus persicae); test: Insecticidal test for green peach aphid in foliar spray assay on cabbage seedlings
Summary of the method: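 Cabbage seedlings carrying 20-50 aphids (adults and nymphs) were sprayed to runoff with compound at 200 ppm in acetone/methanol diluted in 0.025% Tween 20, with four pots per treatment. After three days at about 25 °C and 40% RH, live aphids were counted. Percent control was Abbott-corrected against solvent-check plants.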

| Structure (SMILES) | % Mortality BAW 50 μg/cm^2 [1] | % Mortality CEW 50 μg/cm^2 [2] | % Mortality GPA 200 ppm [3] |
| --- | --- | --- | --- |
| O=C(Nc1ccc(-c2ncn(-c3ccc(OC(F)(F)F)cc3)n2)cc1)OC1CCc2ccccc21 (stereo not drawn) [Compound 109] | B (Less than 50) | A (50-100) | B (Less than 80) |
| CC(OC(=O)Nc1ccc(-c2ncn(-c3ccc(OC(F)(F)F)cc3)n2)cc1)c1cccnc1 (stereo not drawn) [Compound 110] | A (50-100) | A (50-100) | B (Less than 80) |
| O=C(Nc1ccc(-c2ncn(-c3ccc(OC(F)(F)F)cc3)n2)cc1)OCc1c(Cl)cccc1Cl [Compound 111] | B (Less than 50) | A (50-100) | B (Less than 80) |
| N#CC(OC(=O)Nc1ccc(-c2ncn(-c3ccc(OC(F)(F)F)cc3)n2)cc1)c1ccccc1 (stereo not drawn) [Compound 112] | A (50-100) | A (50-100) | B (Less than 80) |
| CCC(CC)OC(=O)Nc1ccc(-c2ncn(-c3ccc(OC(F)(F)F)cc3)n2)cc1 [Compound 113] | A (50-100) | A (50-100) | B (Less than 80) |
| CC(OC(=O)Nc1ccc(-c2ncn(-c3ccc(OC(F)(F)F)cc3)n2)cc1)c1c(F)c(F)c(F)c(F)c1F (stereo not drawn) [Compound 114] | A (50-100) | B (Less than 50) | B (Less than 80) |
| CC(OC(=O)Nc1ccc(-c2ncn(-c3ccc(OC(F)(F)F)cc3)n2)cc1)c1ccc(C(F)(F)F)cc1C(F)(F)F (stereo not drawn) [Compound 115] | B (Less than 50) | B (Less than 50) | B (Less than 80) |
| CC(OC(=O)Nc1ccc(-c2ncn(-c3ccc(OC(F)(F)F)cc3)n2)cc1)c1ccc(-c2ccccc2)cc1 (stereo not drawn) [Compound 116] | B (Less than 50) | A (50-100) | B (Less than 80) |
| CC(OC(=O)Nc1ccc(-c2ncn(-c3ccc(OC(F)(F)F)cc3)n2)cc1)c1ccc(F)cn1 (stereo not drawn) [Compound 117] | A (50-100) | A (50-100) | B (Less than 80) |
| CC(OC(=O)Nc1ccc(-c2ncn(-c3ccc(OC(F)(F)F)cc3)n2)cc1)c1ccc(Cl)cn1 (stereo not drawn) [Compound 118] | A (50-100) | A (50-100) | B (Less than 80) |
| COc1ccc(C(C)OC(=O)Nc2ccc(-c3ncn(-c4ccc(OC(F)(F)F)cc4)n3)cc2)nc1 (stereo not drawn) [Compound 119] | A (50-100) | A (50-100) | B (Less than 80) |
| CC(OC(=O)Nc1ccc(-c2ncn(-c3ccc(OC(F)(F)F)cc3)n2)cc1)c1cccc(Cl)n1 (stereo not drawn) [Compound 120] | A (50-100) | A (50-100) | B (Less than 80) |
| Cc1cc(C)c(CCOC(=O)Nc2ccc(-c3ncn(-c4ccc(OC(F)(F)F)cc4)n3)cc2)c(C)c1 [Compound 121] | B (Less than 50) | A (50-100) | B (Less than 80) |
| O=C(Nc1ccc(-c2ncn(-c3ccc(OC(F)(F)F)cc3)n2)cc1)Oc1ccccc1 [Compound 122] | A (50-100) | A (50-100) | B (Less than 80) |
| Cc1ccc(OC(=O)Nc2ccc(-c3ncn(-c4ccc(OC(F)(F)F)cc4)n3)cc2)cn1 [Compound 123] | B (Less than 50) | B (Less than 50) | B (Less than 80) |
| O=C(Nc1ccc(-c2ncn(-c3ccc(OC(F)(F)F)cc3)n2)cc1)Oc1ccccc1C(F)(F)F [Compound 124] | A (50-100) | A (50-100) | B (Less than 80) |
| Cc1cc(Cl)ccc1OC(=O)Nc1ccc(-c2ncn(-c3ccc(OC(F)(F)F)cc3)n2)cc1 [Compound 128] | A (50-100) | A (50-100) | B (Less than 80) |
| O=C(Nc1ccc(-c2ncn(-c3ccc(OC(F)(F)F)cc3)n2)cc1)Oc1cccc(-c2ccccc2)c1 [Compound 129] | A (50-100) | A (50-100) | B (Less than 80) |
| CCN(C(=O)OC(C)c1ccc(C(F)(F)F)nc1)c1ccc(-c2ncn(-c3ccc(OC(F)(F)F)cc3)n2)cc1 (stereo not drawn) [Compound 130, 1-(6-(trifluoromethyl)pyridin-3-yl)ethyl ethyl(4-(1-(4-(trifluoromethoxy)phenyl)-1H-1,2,4-triazol-3-yl)phenyl)carbamate] | A (50-100) | A (50-100) | B (Less than 80) |
| COC(=S)Nc1ccc(-c2ncn(-c3ccc(OC(F)(F)F)cc3)n2)cc1 [Compound 132, O-methyl 4-(1-(4-(trifluoromethoxy)phenyl)-1H-1,2,4-triazol-3-yl)phenylcarbamothioate] | A (50-100) | B (Less than 50) | B (Less than 80) |
| CC(OC(=S)Nc1ccc(-c2ncn(-c3ccc(OC(F)(F)F)cc3)n2)cc1)c1ccc(C(F)(F)F)nc1 (stereo not drawn) [Compound 133, O-1-(6-(trifluoromethyl)pyridin-3-yl)ethyl 4-(1-(4-(trifluoromethoxy)phenyl)-1H-1,2,4-triazol-3-yl)phenylcarbamothioate] | A (50-100) | A (50-100) | B (Less than 80) |
| Fc1ccc(OC(=S)Nc2ccc(-c3ncn(-c4ccc(OC(F)(F)F)cc4)n3)cc2)cc1 [Compound 134, O-4-fluorophenyl 4-(1-(4-(trifluoromethoxy)phenyl)-1H-1,2,4-triazol-3-yl)phenylcarbamothioate] | B (Less than 50) | B (Less than 50) | B (Less than 80) |
| COC(=O)Nc1ccc(-c2ncn(-c3ccc(OC(F)(F)C(F)(F)F)cc3)n2)cc1 [Compound 135, methyl 4-(1-(4-(perfluoroethoxy)phenyl)-1H-1,2,4-triazol-3-yl)phenylcarbamate] | A (50-100) | A (50-100) | B (Less than 80) |
| CN(C(=O)Oc1ccc([N+](=O)[O-])cc1)c1ccc(-c2ncn(-c3ccc(OC(F)(F)F)cc3)n2)cc1 [Compound 136, methyl-{4-[1-(4-trifluoromethoxyphenyl)-1H-[1,2,4]triazol-3-yl]-phenyl}-carbamic acid 4-nitrophenyl ester] | B (Less than 50) | B (Less than 50) | B (Less than 80) |
